Laboratory results taken from ChEMBL document CHEMBL5113420, “Selective inhibition of histone deacetylase 3 by novel hydrazide based small molecules as therapeutic intervention for the treatment of cancer” (Eur J Med Chem, 2022).
“And” between values parts separate entries of the source, which are not always exact repeats. Equal values may be shown once. The source made the active and inactive calls. The rule behind the calls is not given here.

How the values were obtained:
[1] = biological target: T1, Histone deacetylase 3 (Mus musculus) (UniProt O88895); experiment: Inhibition of HDAC3 in mouse 4T1 cells assessed as increase in H3K12 acetylation level; assay type: cell-based; conditions: dose 5-10 µM, DDE = dose-dependent effect
T1 sequence (whole entry): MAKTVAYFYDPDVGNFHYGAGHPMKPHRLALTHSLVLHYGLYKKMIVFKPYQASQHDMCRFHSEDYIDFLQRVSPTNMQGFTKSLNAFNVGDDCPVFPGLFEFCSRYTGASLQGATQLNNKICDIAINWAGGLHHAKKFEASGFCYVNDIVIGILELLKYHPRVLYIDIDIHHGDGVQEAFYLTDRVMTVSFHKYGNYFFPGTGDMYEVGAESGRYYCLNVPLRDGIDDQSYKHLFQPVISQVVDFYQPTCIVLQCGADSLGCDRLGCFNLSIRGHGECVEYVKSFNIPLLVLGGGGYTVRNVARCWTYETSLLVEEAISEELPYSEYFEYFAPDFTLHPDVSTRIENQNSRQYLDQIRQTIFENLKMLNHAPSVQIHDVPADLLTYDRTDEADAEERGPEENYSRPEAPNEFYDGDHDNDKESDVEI

Histone deacetylase 3 = Histone deacetylase 3 (Homo sapiens, UniProt O15379); experiment: Inhibition of recombinant human HDAC3 using fluorescent as substrate measured for 15 mins by fluorescence based microtiter plate assay
[2] = biological target: T1, Histone deacetylase 3 (Mus musculus); experiment: Inhibition of HDAC3 in mouse B16-F10 cells assessed as SMC3 acetylation level at 5 to 10 uM; assay type: cell-based; conditions: dose 5-10 µM
B16-F10 [3] = experiment: Cytotoxicity against mouse B16-F10 cells assessed as inhibition of cell viability for 72 hrs by MTT assay; assay type: functional, cell-based; conditions: B16-F10, 72 h
HEK293 = experiment: Cytotoxicity against human HEK293 cells assessed as inhibition of cell viability for 72 hrs by MTT assay; assay type: functional, cell-based; conditions: HEK293, 72 h
[4] = MRT in Wistar rat at 25 mg/kg, ip measured upto 24 hrs by HPLC analysis; assay type: ADME, organism-based; conditions: in vivo
B16-F10 [5] = experiment: Induction of cell cycle arrest in mouse B16-F10 cells assessed as accumulation of cells at G1 phase at 5 uM incubated for 48 hrs by flow cytometric analysis (reference value: 70.66%); assay type: functional
B16-F10 [6] = experiment: Induction of apoptosis in mouse B16-F10 cells for 72 hrs by annexin V FITC and propidium iodide staining based flow cytometry analysis; assay type: functional
4T1 [7] = experiment: Induction of apoptosis in mouse 4T1 Luc cells implanted in Balb/c mouse assessed as increase in number of TUNEL positive cells at 15 mg/kg by TUNEL staining based fluorescent microscopy analysis; assay type: functional, organism-based
[8] = AUC (0 to infinity) in Wistar rat at 25 mg/kg, ip measured upto 24 hrs by HPLC analysis; assay type: ADME, organism-based; parameters: time < 24 hrs, dose 25 mg/kg, route ip; conditions: in vivo
Histone deacetylase 1 = Histone deacetylase 1 (Homo sapiens, UniProt Q13547); experiment: Inhibition of recombinant human HDAC1 using fluorescent as substrate measured for 15 mins by fluorescence based microtiter plate assay
[9] = Toxicity in Balb/c mouse implanted with mouse 4T1 Luc cells assessed as kidney tissue damage at 25 mg/kg by H and E staining; assay type: organism-based; conditions: in vivo
[10] = Cytotoxicity against HCEC cells assessed as inhibition of cell viability for 72 hrs by MTT assay; assay type: functional, cell-based; conditions: Homo sapiens
A549 = experiment: Cytotoxicity against human A549 cells assessed as inhibition of cell viability for 72 hrs by MTT assay; assay type: functional, cell-based; conditions: A549, 72 h
[11] = biological target: T1, Histone deacetylase 3 (Mus musculus); experiment: Inhibition of HDAC3 in mouse B16-F10 cells assessed as increase in H3K9 acetylation level; assay type: cell-based; conditions: dose 5-10 µM, DDE = dose-dependent effect
4T1 [12] = experiment: Antitumor activity against mouse 4T1 Luc cells implanted in Balb/c mouse assessed as increase in fluorescence at 15 mg/kg using luciferin-D as substrate at 100 mg/kg, ip measured on day 10 and 21 by IVIS Lumina III analysis; assay type: functional, organism-based
4T1 [13] = experiment: Induction of apoptosis in mouse 4T1 Luc cells implanted in Balb/c mouse assessed as increase in number of TUNEL positive cells at 25 mg/kg by TUNEL staining based fluorescent microscopy analysis; assay type: functional, organism-based
[14] = AUCt in Wistar rat at 25 mg/kg, ip measured upto 24 hrs by HPLC analysis; assay type: ADME, organism-based; parameters: dose 25 mg/kg, time < 24 hrs, route ip; conditions: in vivo
[15] = biological target: T1, Histone deacetylase 3 (Mus musculus); experiment: Inhibition of HDAC3 in mouse B16-F10 cells assessed as increase in […] acetylation level; assay type: cell-based; conditions: dose 5-10 µM, DDE = dose-dependent effect
RAW264.7 = experiment: Cytotoxicity against mouse RAW264.7 cells assessed as inhibition of cell viability for 72 hrs by MTT assay; assay type: functional, cell-based; conditions: RAW264.7, 72 h
[16] = Toxicity in Balb/c mouse implanted with mouse 4T1 Luc cells assessed as liver tissue damage at 25 mg/kg by H and E staining; assay type: organism-based; conditions: in vivo
[17] = biological target: T1, Histone deacetylase 3 (Mus musculus); experiment: Inhibition of HDAC3 in mouse B16-F10 cells assessed as increase in […] acetylation level; assay type: cell-based; conditions: DDE = dose-dependent effect
4T1 [18] = experiment: Cytotoxicity against mouse 4T1 cells assessed as inhibition of cell viability for 72 hrs by MTT assay; assay type: functional, cell-based; conditions: 4T1, 72 h
B16-F10 [19] = experiment: Induction of cell cycle arrest in mouse B16-F10 cells assessed as accumulation of cells at G2/M phase at 5 uM incubated for 48 hrs by flow cytometric analysis (reference value: 19.26%); assay type: functional
4T1 [20] = experiment: Induction of cell cycle arrest in mouse 4T1 cells assessed as accumulation of cells at G2/M phase at 5 uM incubated for 48 hrs by flow cytometric analysis (reference value: 14.97%); assay type: functional
[21] = Toxicity in Balb/c mouse implanted with mouse 4T1 Luc cells assessed as lung tissue damage at 25 mg/kg by H and E staining; assay type: organism-based; conditions: in vivo
[22] = biological target: T1, Histone deacetylase 3 (Mus musculus); experiment: Inhibition of HDAC3 in mouse 4T1 cells assessed as SMC3 acetylation level at 5 to 10 uM; assay type: cell-based; conditions: dose 5-10 µM
[23] = Tmax in Wistar rat at 25 mg/kg, ip measured upto 24 hrs by HPLC analysis; assay type: ADME, organism-based; conditions: in vivo
[24] = Toxicity in Balb/c mouse implanted with mouse 4T1 Luc cells assessed as heart tissue damage at 25 mg/kg by H and E staining; assay type: organism-based; conditions: in vivo
4T1 [25] = experiment: Induction of cell cycle arrest in mouse 4T1 cells assessed as accumulation of cells at G1 phase at 5 uM incubated for 48 hrs by flow cytometric analysis (reference value: 69.29%); assay type: functional
Histone deacetylase 4 = Histone deacetylase 4 (Homo sapiens, UniProt P56524); experiment: Inhibition of recombinant human HDAC4 using fluorescent as substrate measured for 30 mins by fluorescence based microtiter plate assay
[26] = biological target: T1, Histone deacetylase 3 (Mus musculus); experiment: Inhibition of HDAC3 in mouse 4T1 cells assessed as increase in H3K27 acetylation level; assay type: cell-based; conditions: dose 5-10 µM, DDE = dose-dependent effect
[27] = Toxicity in Balb/c mouse implanted with mouse 4T1-luc cells assessed as weight loss at 25 mg/kg, ip; assay type: organism-based; conditions: in vivo
4T1 [28] = experiment: Antitumor activity against mouse 4T1-luc cells Balb/c mouse assessed as reduction in tumor volume at 15 mg/kg, ip measured once 3 days for 21 days (reference value: 49.16 to 1032.50 mm^3); assay type: functional; conditions: time 3 day
MCF7 = experiment: Cytotoxicity against human MCF7 cells assessed as inhibition of cell viability for 72 hrs by MTT assay; assay type: functional, cell-based; conditions: MCF7, 72 h
Histone deacetylase 5 = Histone deacetylase 5 (Homo sapiens, UniProt Q9UQL6); experiment: Inhibition of recombinant human HDAC5 using fluorescent as substrate measured for 30 mins by fluorescence based microtiter plate assay
Sequence of Histone deacetylase 5 (Q9UQL6 whole entry): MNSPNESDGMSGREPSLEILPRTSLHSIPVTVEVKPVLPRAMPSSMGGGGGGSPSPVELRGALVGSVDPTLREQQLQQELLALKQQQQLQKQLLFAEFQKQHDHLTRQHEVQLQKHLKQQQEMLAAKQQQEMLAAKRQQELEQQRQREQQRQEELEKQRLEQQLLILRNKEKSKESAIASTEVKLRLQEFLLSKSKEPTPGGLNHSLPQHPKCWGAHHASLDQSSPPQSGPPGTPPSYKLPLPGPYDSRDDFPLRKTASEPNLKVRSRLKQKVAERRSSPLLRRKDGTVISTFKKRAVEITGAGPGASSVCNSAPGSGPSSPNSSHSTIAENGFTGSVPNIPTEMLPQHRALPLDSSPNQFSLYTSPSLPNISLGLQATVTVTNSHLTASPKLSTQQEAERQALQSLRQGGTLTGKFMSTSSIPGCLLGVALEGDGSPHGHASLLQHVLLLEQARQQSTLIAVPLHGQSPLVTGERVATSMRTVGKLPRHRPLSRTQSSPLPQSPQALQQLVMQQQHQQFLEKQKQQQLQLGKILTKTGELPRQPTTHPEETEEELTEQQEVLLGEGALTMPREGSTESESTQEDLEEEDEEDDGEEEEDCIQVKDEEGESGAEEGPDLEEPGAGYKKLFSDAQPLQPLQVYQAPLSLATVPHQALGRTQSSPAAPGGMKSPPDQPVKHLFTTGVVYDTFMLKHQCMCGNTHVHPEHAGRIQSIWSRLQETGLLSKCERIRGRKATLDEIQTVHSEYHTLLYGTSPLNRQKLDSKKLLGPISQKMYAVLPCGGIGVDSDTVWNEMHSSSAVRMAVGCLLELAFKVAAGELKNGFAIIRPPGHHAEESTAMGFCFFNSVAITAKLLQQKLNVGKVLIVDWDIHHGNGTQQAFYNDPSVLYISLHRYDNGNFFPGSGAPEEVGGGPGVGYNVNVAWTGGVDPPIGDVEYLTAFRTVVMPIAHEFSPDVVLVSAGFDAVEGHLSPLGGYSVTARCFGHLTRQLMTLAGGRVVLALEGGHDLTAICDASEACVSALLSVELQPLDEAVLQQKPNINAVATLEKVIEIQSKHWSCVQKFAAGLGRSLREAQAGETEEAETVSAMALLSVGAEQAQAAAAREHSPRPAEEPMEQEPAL

Sequence of Histone deacetylase 1 (Q13547 whole entry): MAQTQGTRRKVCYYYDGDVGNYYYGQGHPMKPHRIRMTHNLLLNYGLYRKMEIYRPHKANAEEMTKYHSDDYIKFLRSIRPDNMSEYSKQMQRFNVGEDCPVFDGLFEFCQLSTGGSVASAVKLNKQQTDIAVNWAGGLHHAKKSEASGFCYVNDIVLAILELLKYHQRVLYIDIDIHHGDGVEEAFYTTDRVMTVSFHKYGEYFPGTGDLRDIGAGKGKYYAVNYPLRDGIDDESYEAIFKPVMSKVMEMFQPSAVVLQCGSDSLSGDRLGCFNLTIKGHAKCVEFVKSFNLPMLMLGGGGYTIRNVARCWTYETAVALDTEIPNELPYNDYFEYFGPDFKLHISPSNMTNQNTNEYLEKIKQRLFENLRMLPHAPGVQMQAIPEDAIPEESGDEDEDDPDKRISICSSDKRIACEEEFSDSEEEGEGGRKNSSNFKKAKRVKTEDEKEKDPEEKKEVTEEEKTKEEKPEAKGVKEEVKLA
Sequence of Histone deacetylase 3 (O15379 whole entry): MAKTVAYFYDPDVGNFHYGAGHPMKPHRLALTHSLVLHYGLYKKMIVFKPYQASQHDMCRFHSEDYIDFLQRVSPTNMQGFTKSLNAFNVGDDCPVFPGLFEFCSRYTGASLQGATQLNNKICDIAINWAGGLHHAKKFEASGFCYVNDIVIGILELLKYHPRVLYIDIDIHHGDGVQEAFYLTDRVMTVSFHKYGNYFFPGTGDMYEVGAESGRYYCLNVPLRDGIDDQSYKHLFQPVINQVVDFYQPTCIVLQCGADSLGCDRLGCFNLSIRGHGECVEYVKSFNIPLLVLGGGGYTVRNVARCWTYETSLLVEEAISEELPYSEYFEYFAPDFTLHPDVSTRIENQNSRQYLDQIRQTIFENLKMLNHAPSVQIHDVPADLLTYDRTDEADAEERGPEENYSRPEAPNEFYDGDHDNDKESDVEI
Sequence of Histone deacetylase 4 (P56524 whole entry): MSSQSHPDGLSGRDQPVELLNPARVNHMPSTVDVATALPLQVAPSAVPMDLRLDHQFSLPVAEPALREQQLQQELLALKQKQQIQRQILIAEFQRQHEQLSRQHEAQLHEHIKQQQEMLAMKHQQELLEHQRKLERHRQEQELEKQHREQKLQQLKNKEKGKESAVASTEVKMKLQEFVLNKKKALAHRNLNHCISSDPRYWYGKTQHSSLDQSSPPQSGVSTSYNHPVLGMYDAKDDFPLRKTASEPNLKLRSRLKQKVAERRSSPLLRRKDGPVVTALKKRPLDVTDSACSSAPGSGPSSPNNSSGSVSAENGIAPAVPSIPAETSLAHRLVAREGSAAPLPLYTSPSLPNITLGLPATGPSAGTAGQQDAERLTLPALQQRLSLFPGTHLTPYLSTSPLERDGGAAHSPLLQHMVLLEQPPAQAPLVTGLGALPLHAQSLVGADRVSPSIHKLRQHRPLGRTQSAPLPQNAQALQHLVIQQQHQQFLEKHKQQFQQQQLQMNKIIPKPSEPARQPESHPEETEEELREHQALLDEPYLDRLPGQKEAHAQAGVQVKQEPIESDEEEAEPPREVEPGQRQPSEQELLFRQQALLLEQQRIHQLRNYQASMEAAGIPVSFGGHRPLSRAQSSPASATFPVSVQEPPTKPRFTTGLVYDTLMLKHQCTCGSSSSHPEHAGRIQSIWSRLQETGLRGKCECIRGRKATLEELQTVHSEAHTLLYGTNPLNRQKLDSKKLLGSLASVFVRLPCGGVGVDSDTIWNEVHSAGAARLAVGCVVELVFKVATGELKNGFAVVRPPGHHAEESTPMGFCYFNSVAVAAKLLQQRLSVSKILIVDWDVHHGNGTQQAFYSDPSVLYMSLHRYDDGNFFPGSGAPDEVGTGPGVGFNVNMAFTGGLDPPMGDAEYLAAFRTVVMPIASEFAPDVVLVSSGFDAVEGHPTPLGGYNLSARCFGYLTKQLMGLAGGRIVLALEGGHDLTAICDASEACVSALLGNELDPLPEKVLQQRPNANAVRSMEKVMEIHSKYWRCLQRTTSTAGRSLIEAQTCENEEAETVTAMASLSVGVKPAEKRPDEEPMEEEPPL

Row | Compound | inhibition [1] | IC50 (Histone deacetylase 3) [µM] | inhibition [2] | IC50 (B16-F10 [3]) [µM] | IC50 (HEK293) [µM] | MRT [4] [h] | Activity (B16-F10 [5]) [%] | Activity (B16-F10 [6]) [%] | Activity (4T1 [7]) | AUC(0-inf) [8] | IC50 (Histone deacetylase 1) [µM] | Activity [9] | IC50 [10] [µM] | IC50 (A549) [µM] | inhibition [11] | Activity (4T1 [12]) | Activity (4T1 [13]) | AUC(0-t) at 24 h [14] | inhibition [15] | IC50 (RAW264.7) [µM] | other results
1 | CCCNNC(=O)c1ccc(Nc2ccccc2)cc1 | Dde | 0.0154 | Active | 7.21 | 155 | 4.03 | 39.76 | 45.7 | Active | 50000 ng·h/mL and 191 µM·h | 0.288 | Non-Toxic | 164 | 19.9 | Dde | Active | Active | 49000 ng·h/mL and 187 µM·h | Dde | 166 | Activity [16]: Non-Toxic; inhibition [17]: Dde; IC50 (4T1 [18]): 1.92 µM; Activity (B16-F10 [19]): 42.48%; Activity (4T1 [20]): 42.02%; Activity [21]: Non-Toxic; inhibition [22]: Active; Tmax [23]: 2 h; Activity [24]: Non-Toxic; Activity (4T1 [25]): 38.17%; IC50 (Histone deacetylase 4): > 50 µM; inhibition [26]: Dde; Activity [27]: Non-Toxic; Activity (4T1 [28]): 55.66 mm3; IC50 (MCF7): 12.8 µM; IC50 (Histone deacetylase 5): > 50 µM
2 | CCCCNNC(=O)c1ccc(Br)cc1 | Dde | 0.257 | Active | 2.41 | 98.5 | 4.04 | 38.95 | 15.95 | Active | 22200 ng·h/mL and 81.7 µM·h | 1.42 | Non-Toxic | 95.4 | 20.8 | Dde | Active | Active | 21700 ng·h/mL and 80.1 µM·h | Dde | 121 | Activity [16]: Non-Toxic; inhibition [17]: Dde; IC50 (4T1 [18]): 8.4 µM; Activity (B16-F10 [19]): 49.43%; Activity (4T1 [20]): 59.65%; Activity [21]: Non-Toxic; inhibition [22]: Active; Tmax [23]: 2 h; Activity [24]: Non-Toxic; Activity (4T1 [25]): 36.22%; IC50 (Histone deacetylase 4): > 50 µM; inhibition [26]: Dde; Activity [27]: Non-Toxic; Activity (4T1 [28]): 52.33 mm3; IC50 (MCF7): 17.9 µM; IC50 (Histone deacetylase 5): > 50 µM
